d = 2'-deoxy (DNA); r = 2'-OH (RNA)
How the values were obtained:
[1] = test system: LNCaP cells; experiment: methylene blue (MB) cell viability assay after siRNA transfection; format: cell-based; details: Lipofectamine 2000 transfection, 72 hours incubation, FIG. 1
Protocol: Prostate cancer cell line LNCaP (ATCC # CRL-1740) was grown in Roswell Park Memorial Institute medium (RPMI) supplemented with 10% fetal bovine serum (FBS) and 100 units/ml penicillin/streptomycin, according to the ATCC protocol. Cells were seeded into 96-well culture plates and incubated overnight before transfection with siRNAs targeting HSP90 sequences.
Cells were transfected using Lipofectamine® 2000 transfection reagent (Life Technologies) based on manufacturer's protocol, with siRNA targeting HSP90: HSP1-1 (sense strand SEQ ID NO: 4, anti-sense strand SEQ ID NO: 8), HSP1-2 (sense strand SEQ ID NO: 5, anti-sense strand SEQ ID NO: 9), and HSP1-3 (sense strand SEQ ID NO: 6, anti-sense strand SEQ ID NO: 10). Cells were also treated with HSP90 inhibitor NVP-AUY922 (or AUY922), a resorcinylicisoxazole amide was used at 5 nM and 10 nM (with similar effect), or left untreated. After 72 hours incubation, cellular viability was determined by standard methylene blue (MB) assay, and quantitated as percentage of viable cells in relation to the untreated sample (FIG. 1).

[2] = test system: Androgen receptor; experiment: AR-dependent luciferase reporter assay in transfected LNCaP cells; format: cell-based; details: co-transfection, 24 hours post-transfection, vs mock, p<0.05, FIG. 2
Protocol: HPS90 is known to be a chaperone of AR (androgen receptor), and is necessary for correct AR post-translational processing. To further test RNAi targeting of HSP90, an AR-dependent luciferase reporter construct was used (FIG. 2). LNCaP cells were cultured as above, and were seeded onto a 48-well culture plate. After an overnight incubation, plated cells were co-transfected using Lipofectamine® 2000 transfection reagent (Life Technologies) based on manufacturer's protocol for DNA-RNA transfections with an AR-luciferase reporter plasmid (Qiagen, CCS-1019L), and siRNA targeting HSP90 (HSP1-1 (sense strand SEQ ID NO: 4, anti-sense strand SEQ ID NO: 8); AR (siAR-1), or a non-target scrambled siRNA (si-scr). Cells transfected only with the AR-luciferase reported plasmid served as the negative control (mock). 24 hours post-transfection, cells were lysed and luciferase activity determined with the Promega luciferase detection kit.

Row | Substance | cellular viability (percentage of viable cells in relation to the untreated sample) [1] | luciferase activity of AR-luciferase reporter plasmid [2]
1 | HSP1-1: siRNA targeting HSP90, sense strand SEQ ID NO: 4, anti-sense strand SEQ ID NO: 8 (sense 5'-AAG ACC AAC CGA UGG AGGAdTdT-3'; antisense 5'-UCC UCC AUC GGU UGG UCUUdTdT-3; as printed in the source, key not given here) | statistically significant decrease | significantly decreased
2 | HSP1-2: siRNA targeting HSP90, sense strand SEQ ID NO: 5, anti-sense strand SEQ ID NO: 9 (sense AAGAGCUGCAUAUUAACCUTT; antisense AGGUUAAUAUGCAGCUCUUTT; sugars from the 5' end r19 d2, backbone not given here) | statistically significant decrease | –
3 | HSP1-3: siRNA targeting HSP90, sense strand SEQ ID NO: 6, anti-sense strand SEQ ID NO: 10 (sense AAGUCUGGGACCAAAGCGUTT; antisense ACGCUUUGGUCCCAGACUUTT; sugars from the 5' end r19 d2, backbone not given here) | statistically significant decrease | –

Source: patent US10006030B2, “RNA interference compositions targeting heat shock protein 90 and methods of use thereof” (SILENSEED LTD., priority 2014, dated 2018)
